Assay results taken from article PMC5347165, “Killing of Staphylococcus aureus and Salmonella enteritidis and neutralization of lipopolysaccharide by 17-residue bovine lactoferricins: improved activity of Trp/Ala-containing molecules” (Scientific Reports, 2017).
Where “and” joins values, the source holds several entries; their conditions need not be identical. Equal values may be shown once.

Columns and labels:
S. enteritidis CVCC3377 = test: Inner membrane permeabilization, PI staining by flow cytometry; format: cell-based, Salmonella enteritidis; settings: 1 × MIC, 37 °C, untreated 0.76%
Method: The permeabilization of the inner membrane was performed according to a previous report by Li et al. with slight modifications. […] Bacterial cells were then washed twice with PBS, fixed with 50 μg/ml PI and analyzed using a BD FACS Calibur Flow Cytometer (Franklin Lakes, New Jersey, USA). Data were analyzed using CellQuest Pro software (BD, USA).

[1] = test system: E. coli CICC21530 (serotype O157:H7); format: cell-based, Escherichia coli; settings: microtiter broth dilution, 10^5 CFU/ml, 16‒18 h at 37 °C; representative of three independent experiments
Method: (§1) The MIC values of LfcinB17-33 derivatives against bacteria were determined by the microtiter broth dilution method. Briefly, 10 μl of serially diluted aliquots of peptides were added to each well of 96-well microtiter plates, followed by the addition of 90 μl exponential phase bacteria (10^5 CFU/ml) and incubated for 16‒18 h at 37 °C.

E. coli CVCC1515 = format: cell-based, Escherichia coli; settings: microtiter broth dilution, 10^5 CFU/ml, 16‒18 h at 37 °C; representative of three independent experiments
Method: as §1

S. aureus ATCC25923 [2] = test: Cell surface hydrophobicity, hexadecane partitioning; format: cell-based, Staphylococcus aureus; settings: peptide 1×, 2× or 4× MIC, 10 min 37 °C, increased from 5.27% (untreated) to this value, mean, n = 3
Method: The effects of AMPs on the cell surface hydrophobicity of S. aureus ATCC25923 and S. enteritidis CVCC3377 were measured using the hexadecane partitioning method. Cells were grown to stationary phase in Mueller-Hinton broth at 37 °C, harvested by centrifugation at 5000 rpm for 4 min, washed twice with sterile normal saline, and suspended in 0.1 M KNO3 (pH 6.2) to an OD600 nm of 0.4. […] Sterile normal saline was used as a negative control, and the optical density at 600 nm was measured as OD0. Subsequently, a 1.2-ml cell suspension was mixed with 0.2 ml of hexadecane by vortexing for 1 min, and then, the mixture was incubated for 15 min. The OD600 nm value of the aqueous phase was determined as OD1. The hydrophobicity percentages were calculated by the following equation: hydrophobicity (%) = (1 − OD1/OD0) × 100%. All experiments were repeated three times.

S. aureus ATCC25923 [3] = test: Macromolecular synthesis, incorporation of radioactive precursors; format: cell-based, Staphylococcus aureus; settings: 1 × MIC; 3H-glucosamine
Method: The effects of each peptide on the incorporation of L-[methyl-^3H] thymidine, [5-^3H] uridine, D-[6-^3H(N)] glucosamine hydrochloride, and L-[3,4,5-^3H] leucine into DNA, RNA, peptidoglycans, and proteins were investigated in S. aureus ATCC25923. […] Radioactive precursors of ^3H-thymidine, ^3H-uridine, ^3H-leucine, and ^3H-glucosamine (40 μCi/ml) were added to cultures to measure macromolecular synthesis and incubated for 20 min at 37 °C. Cold 25% trichloroacetic acid (TCA) was added to the mixture and placed on ice for 30 min. After centrifugation, pellets were washed twice with 25% TCA, dried and counted with scintillation fluid on a MicroBeta 1450 scintillation counter (Perkin Elmer)[46].

[4] = test system: genomic DNA from E. coli O157; test: Gel retardation (EMSA) of genomic DNA; format: binding, Escherichia coli; settings: 0.7% agarose gel, 10 min 37 °C; ratios tested 0, 0.5, 1, 2.5, 5, 10 (w/w)
Method: (§2) Genomic DNA was extracted from S. aureus ATCC25923, E. coli O157 and S. enteritidis CVCC3377 using a TIANamp Bacteria DNA Kit (TIANGEN Biotech Co., Ltd., Beijing). The gel retardation experiment was performed by mixing the bacterial DNA with different concentrations of Lfcin4 or Lfcin5 in 20 μl binding buffer (10 mM Tris-HCl, pH 8.0, 5% glycerol, 1 mM dithiothreitol, 1 mM EDTA, 20 mM KCl, and 50 μg/ml bovine serum albumin)[41]. The ratios of peptide to DNA were 0, 0.5, 1, 2.5, 5.0, and 10.0 (w/w). The mixtures were incubated for 10 min at 37 °C and then subjected to electrophoresis on a 0.7% agarose gel.

S. aureus ATCC25923 [5] = test: Outer membrane permeabilization, NPN uptake; format: cell-based, Staphylococcus aureus; settings: 1×, 2× or 4 × MIC; HEPES buffer pH 7.2
Method: The effects of Lfcin4 and Lfcin5 on the outer membrane of S. aureus ATCC25923 and S. enteritidis CVCC3377 were determined by measuring the uptake of NPN[44][45]. Mid-log phase cells were washed with sterile normal saline three times and suspended in 5 mM HEPES buffer (pH 7.2, containing 5 mM glucose) to an OD at 600 nm of 0.5. […] The relative fluorescence intensity was measured using an Infinite M200 PRO plate reader. The excitation and emission wavelengths were set at 328 and 438 nm, respectively. Treatment with PBS severed as a negative control, and treatment with ampicillin or colistin was used as a positive control.

S. aureus ATCC25923 [6] = format: cell-based, Staphylococcus aureus; settings: microtiter broth dilution, 10^5 CFU/ml, 16‒18 h at 37 °C; representative of three independent experiments
Method: as §1

[7] = test system: genomic DNA from S. enteritidis CVCC3377; test: Gel retardation (EMSA) of genomic DNA; format: binding, Salmonella enteritidis; settings: 0.7% agarose gel, 10 min 37 °C; ratios tested 0, 0.5, 1, 2.5, 5, 10 (w/w)
Method: as §2

LPS from E. coli O111:B4 = test: LPS-induced endotoxemia model, survival; format: in vivo, mouse (C57BL/6); settings: followed 7 d, groups of eight mice
Method: Male C57BL/6 mice (8 weeks old, 22 ± 2 g) were intraperitoneally injected with 30 mg/kg of LPS (0.2 ml) from E. coli O111:B4 cells as previously described. Mice were intraperitoneally injected with Lfcin4 or Lfcin5 (10, 15 or 20 mg/kg of body weight in 0.2 ml) or colistin (15 mg/kg of body weight in 0.2 ml) at 0.5, 8 and 24 h after inoculation with LPS, respectively. Mice injected with LPS or saline only served as positive or mock-treated controls, respectively. Survival was recorded every 12 h and followed for up to 7 d.

Sequence: FKAWRWAWRMKKLAAPS [Lfcin4, 17-residue LfcinB17-31 derivative, Trp/Ala-containing]
- PI-positive cells (S. enteritidis CVCC3377; 30 min): 2.94%
- PI-positive cells (S. enteritidis CVCC3377; 120 min): 18.90%
- MIC [1]: 15 μM and 32 μg/ml
- MIC (E. coli CVCC1515): 15 μM and 32 μg/ml
- cell surface hydrophobicity (S. aureus ATCC25923 [2]): 18.87%
- label incorporation into peptidoglycans (in words) (S. aureus ATCC25923 [3]): increased label incorporation into peptidoglycans
- peptide:DNA mass ratio at which migration of genomic DNA is impaired [4]: over 1.0 mass ratio (peptide:DNA)
- time to permeabilization of the outer membrane (NPN fluorescence) (S. aureus ATCC25923 [5]): ≤ 1 min
- MIC (S. aureus ATCC25923 [6]): 3.66 μM and 8 μg/ml
- peptide:DNA mass ratio at which migration of genomic DNA is impaired [7]: greater than 2.5 mass ratio (peptide:DNA)
- survival rate (LPS from E. coli O111:B4; 10 mg/kg i.p. at 0.5, 8 and 24 h after LPS 30 mg/kg i.p.): 75%
- survival rate (LPS from E. coli O111:B4; 15 mg/kg i.p. at 0.5, 8 and 24 h after LPS 30 mg/kg i.p.): 100%
- survival rate (LPS from E. coli O111:B4; 20 mg/kg i.p. at 0.5, 8 and 24 h after LPS 30 mg/kg i.p.): 100%
